Assay results as given in patent publication USRE49080E1, “Glycoside derivatives and uses thereof” (Novartis AG, priority 2009, dated 2022).

Columns and labels:
[1] = target: human SGLT1 (Homo sapiens (Human), UniProt P13866); test: SGLT1 assay: analogous test with hSGLT1 cDNA expressed in CHO-K1 or HEK293 cells; assay type: cell-based; conditions: n = 1-4; 14C-AMG uptake, cells expressing hSGLT1
Description: (§1) The SGLT-2 assay is carried out as follows: CHO-hSGLT2 cells are cultivated in Ham's F12 Medium (BioWhittaker) with 10% foetal calf serum and 250 μg/mL zeocin (Invitrogen), and HEK293-hSGLT2 cells are cultivated in DMEM medium with 10% foetal calf serum and 250 μg/mL zeocin (Invitrogen). The cells are detached from the culture flasks by washing twice with PBS and subsequently treating with trypsin/EDTA. After the addition of cell culture medium the cells are centrifuged, resuspended in culture medium and counted in a Casy cell counter. Then 40,000 cells per well are seeded into a white, 96-well plate coated with poly-D-lysine and incubated overnight at 37° C., 5% CO2. The cells are washed twice with 250 μl of assay buffer (Hanks Balanced Salt Solution, 137 mM NaCl, 5.4 mM KCl, 2.8 mM CaCl2, 1.2 mM MgSO4 and 10 mM HEPES (pH 7.4), 50 μg/mL of gentamycin). 250 μl of assay buffer and 5 μl of test compound are then added to each well and the plate is incubated for a further 15 minutes in the incubator. 5 μl of 10% DMSO are used as the negative control. The reaction is started by adding 5 μl of 14 C-AMG (0.05 μCi) to each well. After 2 hours' incubation at 37° C., 5% CO2, the cells are washed again with 250 μl of PBS […] and then lysed by the addition of 25 μl of 0.1 N NaOH (5 min. at 37° C.). 200 μl of MicroScint20 (Packard) are added to each well and incubation is continued for a further 20 min at 37° C. After this incubation the radioactivity of the 14 C-AMG absorbed is measured in a Topcount (Packard) using a 14 C scintillation program.
To determine the selectivity with respect to human SGLT1 an analogous test is set up in which the cDNA for hSGLTI (Genbank Ace. No. NM000343) instead of hSGLT2 cDNA is expressed in CHO-K1 or HEK293 cells.

[2] = target: human sodium glucose co-transporter 2 (Homo sapiens (Human), UniProt P31639); test: SGLT-2 assay: 14C-AMG uptake in CHO-hSGLT2 or HEK-hSGLT2 cells; assay type: cell-based; conditions: n = 1-4, cells stably transfected with hSGLT2, read-out: SGLT2 IC50 nM (n = 1-4)
Chain of human sodium glucose co-transporter 2 (P31639 whole entry): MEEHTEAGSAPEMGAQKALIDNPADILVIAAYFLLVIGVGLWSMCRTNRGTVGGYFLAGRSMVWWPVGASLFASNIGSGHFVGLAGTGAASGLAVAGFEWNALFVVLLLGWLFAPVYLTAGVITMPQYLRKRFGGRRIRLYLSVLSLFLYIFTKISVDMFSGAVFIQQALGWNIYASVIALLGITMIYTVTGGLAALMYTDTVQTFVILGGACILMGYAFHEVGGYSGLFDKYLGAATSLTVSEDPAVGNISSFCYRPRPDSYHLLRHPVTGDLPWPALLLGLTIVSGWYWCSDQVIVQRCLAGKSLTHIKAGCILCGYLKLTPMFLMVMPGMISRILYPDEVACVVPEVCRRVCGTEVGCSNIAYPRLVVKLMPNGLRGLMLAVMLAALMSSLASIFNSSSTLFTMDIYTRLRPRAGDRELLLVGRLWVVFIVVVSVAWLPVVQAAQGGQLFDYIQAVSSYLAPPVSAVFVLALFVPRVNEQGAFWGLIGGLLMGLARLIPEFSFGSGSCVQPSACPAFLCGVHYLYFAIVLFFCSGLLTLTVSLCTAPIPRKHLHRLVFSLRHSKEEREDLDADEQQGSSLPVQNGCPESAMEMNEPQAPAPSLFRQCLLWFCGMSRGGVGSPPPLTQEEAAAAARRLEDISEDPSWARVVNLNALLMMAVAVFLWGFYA
Description: These cell lines transport 14 C-labelled alpha-methyl-glucopyranoside (14 C-AMG, Amersham) into the interior of the cell in sodium-dependent manner.
as §1

Chain of human SGLT1 (P13866 whole entry): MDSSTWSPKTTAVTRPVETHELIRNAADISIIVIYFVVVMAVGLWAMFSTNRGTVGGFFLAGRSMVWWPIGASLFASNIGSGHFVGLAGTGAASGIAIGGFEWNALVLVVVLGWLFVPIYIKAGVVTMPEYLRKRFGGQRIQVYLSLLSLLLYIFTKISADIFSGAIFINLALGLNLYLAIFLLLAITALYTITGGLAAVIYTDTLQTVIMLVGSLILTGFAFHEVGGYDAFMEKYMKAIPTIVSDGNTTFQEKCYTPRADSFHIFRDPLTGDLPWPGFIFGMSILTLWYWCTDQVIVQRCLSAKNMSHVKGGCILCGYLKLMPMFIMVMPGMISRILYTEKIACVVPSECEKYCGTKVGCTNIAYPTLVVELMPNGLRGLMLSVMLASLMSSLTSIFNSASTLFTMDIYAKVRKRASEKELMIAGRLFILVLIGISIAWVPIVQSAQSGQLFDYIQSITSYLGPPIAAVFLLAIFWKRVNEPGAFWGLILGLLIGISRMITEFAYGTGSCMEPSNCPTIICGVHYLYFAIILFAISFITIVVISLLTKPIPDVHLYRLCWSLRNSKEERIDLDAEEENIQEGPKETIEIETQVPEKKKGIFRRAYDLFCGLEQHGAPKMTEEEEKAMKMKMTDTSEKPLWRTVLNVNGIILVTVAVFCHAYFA

## OC[C@H]1O[C@@H](c2ccc(Cl)c(Cc3ccc4c(c3)NCCC4)c2)[C@H](O)[C@@H](O)[C@@H]1O [Example 16, (2S,3R,4R,5S,6R)-2-[4-Chloro-3-(1,2,3,4-tetrahydro-quinolin-7-ylmethyl)-phenyl]-6-hydroxymethyl-tetrahydro-pyran-3,4,5-triol]
[1]
  IC50: 750 nM
[2]
  IC50: 0.15 nM

## CCN1CCOc2cc(Cc3cc([C@@H]4O[C@H](CO)[C@@H](O)[C@H](O)[C@H]4O)ccc3Cl)ccc21 [Example 2, (2S,3R,4R,5S,6R)-2-[4-Chloro-3-(4-ethyl-3,4-dihydro-2H-benzo[1,4]oxazin-7-ylmethyl)-phenyl]-6-hydroxymethyl-tetrahydro-pyran-3,4,5-triol]
[1]
  IC50: 2500 nM
[2]
  IC50: 11.1 nM

## CN1CCOc2cc(Cc3cc([C@@H]4O[C@H](CO)[C@@H](O)[C@H](O)[C@H]4O)ccc3Cl)ccc21 [Example 1, (2S,3R,4R,5S,6R)-2-[4-Chloro-3-(4-methyl-3,4-dihydro-2H benzo[1,4]oxazin-7-ylmethyl)-phenyl]-6-hydroxymethyl-tetrahydro-pyran-3,4,5-triol]
[1]
  IC50: 655 nM
[2]
  IC50: 2.7 nM

## OC[C@H]1O[C@@H](c2ccc(F)c(Cc3ccc4c(c3)NCCO4)c2)[C@H](O)[C@@H](O)[C@@H]1O [Example 24, (2S,3R,4R,5S,6R)-2-[3-(3,4-Dihydro-2H-benzo[1,4]oxazin-6-ylmethyl)-4-fluoro-phenyl]-6-hydroxymethyl-tetrahydro-pyran-3,4,5-triol]
[1]
  IC50: 31000 nM
[2]
  IC50: 1.3 nM

## OC[C@H]1O[C@@H](c2ccc(Cl)c(Cc3ccc4c(c3)CCCN4)c2)[C@H](O)[C@@H](O)[C@@H]1O [Example 15, (2S,3R,4R,5S,6R)-2-[4-Chloro-3-(1,2,3,4-tetrahydro-quinolin-6-ylmethyl)-phenyl]-6-hydroxymethyl-tetrahydro-pyran-3,4,5-triol]
[1]
  IC50: 650 nM
[2]
  IC50: 0.2 nM

## CC(C)c1ccc([C@@H]2O[C@H](CO)[C@@H](O)[C@H](O)[C@H]2O)cc1Cc1ccc2c(c1)NCCO2 [Example 69, (2S,3R,4R,5S,6R)-2-[3-(3,4-Dihydro-2H-benzo[1,4]oxazin-6-ylmethyl)-4-isopropyl-phenyl]-6-hydroxymethyl-tetrahydro-pyran-3,4,5-triol]
[1]
  IC50: 37 nM
[2]
  IC50: 1.2 nM

## CC1(C)Oc2ccc(Cc3cc([C@@H]4O[C@H](CO)[C@@H](O)[C@H](O)[C@H]4O)ccc3Cl)cc2NC1=O [Example 46, 6-[2-Chloro-5-((2S,3R,4R,5S,6R)-3,4,5-trihydroxy-6-hydroxymethyl-tetrahydro-pyran-2-yl)-benzyl]-2,2-dimethyl-4H-benzo[1,4]oxazin-3-one]
[1]
  IC50: > 3900 nM
[2]
  IC50: 14 nM

## COc1ccc([C@@H]2O[C@H](CO)[C@@H](O)[C@H](O)[C@H]2O)cc1Cc1ccc2c(c1)OCC(=O)N2 [Example 43, 7-[2-Methoxy-5-((2S,3R,4R,5S,6R)-3,4,5-trihydroxy-6-hydroxymethyl-tetrahydro-pyran-2-yl)-benzyl]-4H-benzo[1,4]oxazin-3-one]
[1]
  IC50: 59 nM
[2]
  IC50: 3.9 nM

## O=C1COc2cc(Cc3cc([C@@H]4O[C@H](CO)[C@@H](O)[C@H](O)[C@H]4O)ccc3Cl)ccc2N1 [Example 42, 7-[2-Chloro-5-((2S,3R,4R,5S,6R)-3,4,5-trihydroxy-6-hydroxymethyl-tetrahydro-pyran-2-yl)-benzyl]-4H-benzo[1,4]oxazin-3-one]
[1]
  IC50: 105 nM
[2]
  IC50: 0.35 nM
